These are literature values, as cited in patent US10028917B2, “Beclomethasone dipropionate compositions in modified-release gastro-resistant microspheres and process for obtaining them” (SOFAR SPA, priority 2010, dated 2018).

Structures are written as SMILES.

The conditions of this data set: relative to hydrocortisone.

For `CCC(=O)OCC(=O)[C@@]1(OC(=O)CC)[C@@H](C)C[C@H]2[C@@H]3CCC4=CC(=O)C=C[C@]4(C)[C@@]3(Cl)[C@@H](O)C[C@@]21C` [BDP, Beclomethasone dipropionate], the “times more powerful than hydrocortisone” value is recorded as 500 times.
